5 molecules from PMC8546149, “Antibiotic-chemoattractants enhance neutrophil clearance of Staphylococcus aureus” (Nature Communications, 2021) can be followed below.

Values after ≈ are worked out from the molar mass of the structure shown. Values joined by “and” are separate entries in the source; they are usually repeats but may differ in a detail not shown here. Identical values can stand only once. Like-named read-outs stand apart in the source and are kept apart here. Non-standard residues stand in square brackets, D forms with d. No end group written: not given here. *: point of attachment. Pra = C#CC[C@H](N)C(=O)O; For = O=C*

Experiment [1] deals with S. aureus. Kind of experiment: Antimicrobial microbroth dilution assay (growth, MIC). The experiment is classed as cell-based. Particulars: Staphylococcus aureus, 20 h, 90% growth inhibition at 20 h, ±SD, n=4. On the procedure:
All bacterial isolates used in this study are listed in Supplementary Table 1. The American Type Culture Collection strain (ATCC 29213) and S. aureus strains were cultured onto brain heart infusion (BHI) agar (BD) or into broth (BD) and grown at 37 °C with shaking. S. aureus was grown in cation adjusted Muller Hinton Broth II (CAMHB, Becton Dickson) for testing. All bacterial strains were stored in glycerol broth at −80 °C.
Antimicrobial activity of the antibiotic-chemoattractants was determined as per the Clinical and Laboratory Standards Institute guidelines for microbroth dilution assays. Compounds stocks were prepared as two-fold serial dilution at 10x stock concentration required (final concentration of DMSO 0.5%). Growth of the S. aureus (5 × 10^5 CFU/mL in CAMHB) was monitored in 96-well flat bottom polypropylene microtiter plates (Greiner) covered with BreatheEasy membranes (Diversified Biotech) and absorbance of each well was measured at 595 nm every 4 h for 24 h (Clariostar plate reader, software v5.20R5, BMG). The percentage growth was calculated relative to the no compound control and the average of three biological replicates plotted using GraphPad Prism 9 software. The minimum inhibitory concentration was determined by the lowest drug concentration that inhibited bacterial growth to 90% compared to the 0 μM control.

Experiment [2] has as its system human neutrophils. The experiment in a line: Transwell chemotaxis assay. Particulars: any of the concentrations tested (1-1000 nM). The class given is cell-based.
Description: For neutrophils used in transwell assays whole blood was collected in the presence of EDTA, under approval from Monash University Human Research Ethics Committee (project #9572) with written informed consent from healthy human donors; donors were de-identified.
The chemotaxis assay was performed in a 96-transwell plate with 3 µm pores (Corning). The plate was prepared by adding 200 μL of peptide in chemotaxis buffer (4 mM L-glutamine, 0.5% Human Serum Albumin, Sigma, 49% Roswell Park Memorial Institute (RPMI) 1640, 49% Hank’s buffered salt solution, ThermoFisher) into the bottom receiving wells at a final peptide concentration of 1, 10, 100, and 1000 nM (0.02% DMSO). The negative control of 0.02% DMSO was used. The top of the transwell plate was loaded with 200,000 neutrophils in 75 μL chemotaxis buffer. The plate was incubated in the dark at 37 °C with 5% CO2 for 1.5 h. […] Elastase activity was used as an indicator of neutrophil numbers and was measured by adding the chromogenic elastase substrate N-methoxysuccinyl-Ala-Ala-Pro-Val-p-nitroanilide (Sigma) at a final concentration of 1 mM[35]. After 30 min at room temperature, the absorbance at 405 nm was determined using a microplate reader (Clariostar plate reader, BMG). […]
Experiment [3] is described as follows: Mouse pneumonia model, lung histology (alveoli space, nuclei). The experiment is classed as in vivo. Details: Area of lung: unit not given here. Particulars: each line is an individual value, listed as Van. As to the method:
For pathology assessment, excised lungs from one mouse for each of the treatment group was fixed in 10% buffered formalin before undergoing routine histological processing (Monash University Histology Platform). Lungs were embedded in paraffin, cut into 5 µm thick sections and stained with hematoxylin and eosin. Tissue pathology was assessed by a veterinary pathologist (Dr Mark Williamson, Gribbles Veterinary Pathology, Clayton, Australia).
The loss of alveoli structure was quantified in the H&E sections by determining the area of white space in six FOV (1.8 × 1.2 mm) in the outer lobes of the lung (threshold of 0–240). In addition, the number of nuclei in these FOV were also determined. This was performed by isolating nuclei in the image (threshold of 0–130) and then using the analyze particle function (particles 80–4000, circularity 0.05–1) in FIJI[36] to count the number of nuclei detected. Data were plotted using GraphPad Prism 8 software.

Experiment [4] addresses T1, formyl peptide receptor 1 (FPR1) (human, UniProt P21462 1-350).
T1 sequence (looked up): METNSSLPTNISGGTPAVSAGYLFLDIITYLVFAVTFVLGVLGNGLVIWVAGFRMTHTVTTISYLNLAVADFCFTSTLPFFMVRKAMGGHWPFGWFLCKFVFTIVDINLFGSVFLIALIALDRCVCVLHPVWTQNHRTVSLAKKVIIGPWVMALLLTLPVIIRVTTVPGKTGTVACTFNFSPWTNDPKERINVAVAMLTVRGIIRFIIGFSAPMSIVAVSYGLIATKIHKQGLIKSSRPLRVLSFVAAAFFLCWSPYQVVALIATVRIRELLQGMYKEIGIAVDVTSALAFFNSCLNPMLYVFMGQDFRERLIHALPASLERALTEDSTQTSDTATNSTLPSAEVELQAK

In experiment [5] the test system is S. aureus (SH1000-GFP). Kind of experiment: Infection-on-a-chip S. aureus growth (GFP area) with neutrophils. The experiment is classed as cell-based, Staphylococcus aureus. As to the method: Use of this microfluidic device for monitoring migration of neutrophils and control of the S. aureus growth in cell culture medium has been outlined in detail previously. Briefly, microfluidic devices were primed with S. aureus (SH1000-GFP, 1 × 10^6/mL) in culture media (Iscove’s Modified Dulbecco’s Medium + 10% Fetal Bovine Serum) by loading the outer chamber and applying vacuum to draw bacteria into the inner chambers. The outer chamber was then washed by pushing 200 µL of media through the device using a pipette, and loaded with neutrophils (5.5 × 10^6/mL, stained with Hoechst 33342 dye, 10 min at 32 μM). Additionally, neutrophil phagocytosis was monitored by using pHrodo Red S. aureus BioParticles® (Life Technologies) in replace of live S. aureus cells. […] The concentration of cells were determined by hemocytometer.
Kinetics of neutrophil migration, S. aureus growth and phagocytosis was determined using imaging with an automated Nikon Eclipse TiE inverted wide-field microscope with stage control and perfect focus system run through the Nikon NIS element v4. […] The percentage of neutrophils recruited into the chamber was determined relative to the total number of neutrophils in each FOV divided by the number of chambers visible. […] The pHrodo or S. aureus GFP fluorescence within the microchamber was calculated by thresholding the image and measuring the area in FIJI[36]. […]

Experiment [6] deals with FPR2 of human neutrophils. The experiment in a line: FPR competition binding assay with RhB-PB10. Particulars: 8 µM peptide, 5 min, after RhB-PB10 15 µM 1 h, Bis-Tris pH 6. On the procedure: A competition binding assay was performed based modification of the previous method. To determine the interaction of the formylated peptides with FPR2 of human neutrophils the fluorescently labelled FPR2 antagonist RhB-PB10 was used. RhB-PB10 was synthesized by solid-phase peptide synthesis on Wang resin. After initial acylation with Fmoc-L-Arg(Pbf)-OH, peptide elongation was performed using a solution of 20% piperidine for Fmoc removal and DIC/ Oxyma for Fmoc-amino acid or Rhodamine B coupling. After completion of the sequence, the peptide was cleaved from the resin and protecting groups were removed via TFA cleavage. Following concentration, the peptide was precipitated using diethyl ether, collected by centrifugation on a spark-resistant centrifuge and purified using RP-HPLC.
RhB-PB10 (15 μM) was preincubated with human neutrophils (5 × 10^6 neutrophils/mL) in Bis-Tris buffer pH 6 for 1 h. […] Any RhB-PB10 that was competed off by the peptides was then removed by washing in Bis-Tris buffer. Rhodamine B fluorescence levels of each sample were determined using microplate reader (Clariostar plate reader, BMG) with ex 550 nm, em 585 nm.

The target in experiment [7] is T1, formyl peptide receptor 1 (FPR1). Kind of experiment: cell-based or functional assay.

As for `CN[C@H](CC(C)C)C(=O)N[C@H]1C(=O)N[C@@H](CC(N)=O)C(=O)N[C@H]2C(=O)N[C@H]3C(=O)N[C@H](C(=O)N[C@H](C(=O)O)c4cc(O)cc(O)c4-c4cc3ccc4O)[C@H](O)c3ccc(c(Cl)c3)Oc3cc2cc(c3O[C@@H]2O[C@H](CO)[C@@H](O)[C@H](O)[C@H]2O[C@H]2C[C@](C)(N)[C@H](O)[C@H](C)O2)Oc2ccc(cc2Cl)[C@H]1O` [Vancomycin, vancomycin], the MIC in experiment [1] (A8819 (daptomycin susceptible, ST105)) worked out at 0.8 ± 0.1 µM (≈ 1.16 µg/mL); in experiment [1] (ATCC 29213 / MSSA, ATCC 29213 (MSSA)), 1 ± 0.25 µM (≈ 1.45 µg/mL); in experiment [1] (MRSA, A5937 (MRSA, ST5)) it was 0.6 ± 0.01 µM (≈ 0.87 µg/mL); in experiment [1] (MRSA, A5948 (MRSA, ST8)), 0.3 ± 0.03 µM (≈ 0.435 µg/mL); in experiment [1] (MRSA, A6300 (MRSA, ST5)) it was 1 ± 0.2 µM (≈ 1.45 µg/mL); in experiment [1] (MRSA, A8090 (MRSA, ST5)), 0.6 ± 0.01 µM (≈ 0.87 µg/mL). The minimal inhibitory concentration (MIC) in experiment [1] (MRSA, A9719 (MRSA, ST5)) stood at 1 ± 0.3 µM (≈ 1.45 µg/mL); in experiment [1] (MRSA, A9754 (MRSA, ST8)), 1.1 ± 0.06 µM (≈ 1.59 µg/mL); in experiment [1] (MSSA, A9635 (MSSA, ST1892)) it was 0.6 ± 0.01 µM (≈ 0.87 µg/mL). Also, the “neutrophil recruitment (in words)” value in experiment [2] is “no neutrophil recruitment”. Besides, the Area of lung in experiment [3] was 61.3 and 69.7 and 55.1 and 61.6 and 71.0 and 68.4 and 57.8. Moreover, the Nuclei in experiment [3] was 6013 and 1856 and 2087 and 3027 and 4794 and 2455.
Consider “fMChaFG = van (fMChaFG conjugated to the C-terminus of vancomycin) (peptide)”, for which, in experiment [4], the ERK1/2 phosphorylation at 5 min in CHO cells overexpressing human FPR1, potency of the conjugate against the free peptide (lower potency) stood at 10 fold and the calcium mobilization in CHO cells overexpressing human FPR1, potency of the conjugate against the free peptide (lower potency) was over 90 fold.
Consider Van-C(H-MLFG-Tz) [C12], for which the “growth inhibition of S. aureus by neutrophils in the microfluidic assay” value in experiment [5] is given as “no observable growth inhibition”. Besides, the “neutrophil recruitment (in words)” value in experiment [2] is “no neutrophil recruitment”.
Regarding fMIVIL [FPR2 specific agonist (Auspep)], the “RhB-PB10 binding to neutrophils relative to control (=1)” value in experiment [6] (replicate 1) amounted to 0.81; in experiment [6] (replicate 2), 0.79; in experiment [6] (replicate 3) it was 0.62; in experiment [6] (replicate 4), 0.75; in experiment [6] (replicate 5) it was 0.7.

B1: fMLFG = van (fMLFG conjugated to the C-terminus of vancomycin, no PEG linker) (peptide)
peptide: For-MLFG[Pra]
modifications: also: C-terminal propargylglycine linked by click (triazole) to azide-modified vancomycin carboxyl group
Turning to B1, in experiment [7], the “ERK1/2 phosphorylation at 5 min in CHO cells overexpressing human FPR1, potency of the conjugate against the free peptide (lower potency)” value came to 10 fold and the “calcium mobilization in CHO cells overexpressing human FPR1, potency of the conjugate against the free peptide (lower potency)” value is over 90 fold.
